Literature values, collected in US20240327780A1 (priority 2023, published 2024).
Counter-ions that a name gives are not always drawn.

System: SARS-CoV-2 nsp14

Row | Structure (SMILES) | inhibition of nsp14 in fluorescence-based screen
1 | Fc1ccc(C(c2ccc(F)cc2)N2CCN(C/C=C/c3ccccc3)CC2)cc1 [flunarizine dihydrochloride] | selective inhibitors
2 | Clc1ccc2nsnc2c1NC1=NCCN1 [tizanidine hydrochloride] | selective inhibitors
